These are literature values, as cited in patent US20040156894A1, “Use of edible acids in fast-dispersing pharmaceutical solid dosage forms” (priority 2003, published 2004).

Converted amounts (≈) assume the structure as drawn. Some results are limits rather than exact numbers.

Consider `CN1C(C(=O)Nc2ccccn2)=C(O)c2ccccc2S1(=O)=O` [piroxicam], for which the water solubility is less than 1000 µg/mL. With `CS(=O)(=O)c1ccc(C2=C(c3ccccc3)C(=O)OC2)cc1` [rofecoxib], the water solubility is 4 µg/mL (≈ 12.7 µM).
